With `CCc1cccc(CC(=O)O)c1OCCCc1cn(-c2ccc(C(F)(F)F)cn2)nc1C(CC)CC`, the melting point was in the range of 130 to 131 °C.

Turning to `COC(=O)c1c(C)cc2cc(OC)c(OC)cc2c1-c1ccnc(Cl)c1`, the melting point lay in the range of 133 to 136 °C.

For `CC(C)(C(=O)O)c1ccsc1`, the melting point lay in the range of 78 to 80.5 °C.

The compound `CCCc1cc2c(=O)n3cc(C(N)=O)ccc3nc2s1` gave a melting point of 260 to 264 °C.

Regarding `CC(C)N(c1ccc(C#N)cc1[N+](=O)[O-])S(=O)(=O)c1ccc(Cl)cc1`, the melting point was found to be 168 °C.

For the compound `CCn1c(=O)n(-c2ccc(Oc3nc4cccnc4n3C)cc2)c2nccc(C(F)(F)F)c21`, the melting point lay in the range of 244 to 246 °C.

Compound `CCS(=O)(=O)N[C@H](C(=O)NCCc1ccc(OCCOc2ccc(F)cc2)c(OC)c1)C(C)C` yielded a melting point of 124 to 125 °C.

`CC(=O)Nc1ncc(C=O)s1` yielded a melting point of 235 to 236 °C.

In turn, `CC1(C)C(=O)N(C(=O)NCC2(O)CCN(CC3(C(=O)O)CCC3)CC2)c2cc(F)ccc21` returned a melting point of 159 °C.

In turn, `O=C(Cc1ccc(C(=O)O)cc1)Nc1cccc(/C=C/c2nc(C3CCC3)cs2)c1` gave a melting point of 262 to 263 °C.

As to `COc1ccc(F)c2c(OC)c(C=O)ccc12`, the melting point fell in the range of 129 to 131 °C.

Regarding `O=C(NCCCCN1CCC(c2c[nH]c3ccccc23)CC1)c1sc(-c2ccc(C(F)(F)F)cc2)nc1CO`, the melting point came out at 235 °C.

For the compound `CC(C)c1c(C=CC2CC(O)CC(O)O2)n(C2CCCCC2)c(=O)c2ccccc12` (mixture of isomers), the melting point is 141 to 142 °C.

`Cc1c(NC(=O)c2ccc(-c3ccc(Cl)s3)cc2)ccc2cc(CN3CCCC3)cnc12` registered a melting point of 210 to 211 °C.

`CCN1CCCC1CNC(=O)c1cc(NS(C)(=O)=O)ccc1OC` (stereo unspecified) had a melting point of 171 to 172 °C.

`C=CCC1(Cc2ncn(C(c3ccccc3)(c3ccccc3)c3ccccc3)c2C)CCc2c(C)c3ccccc3n2C1=O` (stereo unspecified): the melting point was 83 to 85 °C.

Turning to `OC(=S)CCc1cccc(Br)c1`, the melting point is 90 to 91 °C.

The compound `CC(CCN(C)c1ccccc1)=NO` came in with a melting point of 46 to 49 °C.

`CC(=C(Cl)Cl)c1cc(N)c(S(N)(=O)=O)cc1S(N)(=O)=O`: the melting point fell in the range of 199 to 202 °C.

On to `O=[N+]([O-])c1cc(CN2CCN(C(c3ccccc3)c3ccccc3)CC2)ccc1Cl`, for which the melting point is 102 °C.

`CCCCCCCCCCCCCCCCOc1cc(O)c(NC(C)=O)cc1C12CC3CC(CC(C3)C1)C2` displayed a melting point of 146 to 148 °C.

`O=C(O)CCCCCCCCCCCCC(=O)ON1C(=O)CCC1=O`: the melting point lay within 116 to 118 °C.

Consider `COC(=O)c1cccc(C=Cc2nc3cc(F)ccc3s2)c1`, for which the melting point is 172 to 173 °C.

`COC(=O)C1=C(S(N)(=O)=O)CCC1` had a melting point of 83 to 84 °C.

In turn, `CC1CCc2c(-n3cccc3)ccc3c(=O)c(C(=O)O)cn1c23` (stereo unspecified) registered a melting point of 303 to 305 °C.

For `COc1ccc(C2CC(c3ccccc3)=NN2c2ccc(S(N)(=O)=O)cc2)cc1` (stereo unspecified), the melting point is 111 °C.

On to `COC(CN(C)C(=O)Nc1nnc(C(C)Oc2ccccc2)s1)OC` (stereo unspecified), for which the melting point lay in the range of 117 to 121 °C.

`CCOC(=O)c1c(-c2cc(C)c(O)c(C)c2)c(C)n2c1-c1cc(OC)c(OC)cc1C(C)(C)C2` displayed a melting point of 200 to 202 °C.

`COC1(c2ccc(F)cc2)CCC(=O)CC1` yielded a melting point of 57 to 59 °C.

For `Cc1nc(C(=O)c2[nH]c3ccc(Cl)cc3c2CC(=O)O)c[nH]1`, the melting point is 237 to 238 °C.

`CCOC(=O)OC1=C(c2cc(C)ccc2C)C(=O)NC1CC1CCS(=NC#N)CC1` (stereo unspecified) yielded a melting point of 103 to 105 °C.

On to `CC(C)Cn1cnc2c(N)nc3ccc(CCCN4CCCC4=O)cc3c21`, for which the melting point was in the range of 174 to 175 °C.

The compound `CC12CCC3c4ccc(O)cc4CCC3C1CC(O)C2` (stereo unspecified) displayed a melting point of 181 to 182 °C.

For `Nc1ncc(I)c(N)c1I`, the melting point worked out at 206 °C.

`Cc1cc(OC(=O)C(C)(C)C)cc(C)c1O` returned a melting point of 92 to 94 °C.

`O=[N+]([O-])c1c(Br)nn(CCO)c1NCc1ccccc1` showed a melting point of 133 to 135 °C.

With `C=CCC(CC1CC2CCN1CC2)(c1ccccc1)c1ccccc1` (stereo unspecified), the melting point is 95.5 to 98 °C.

`O=C(O)Cc1cnn(-c2ccccc2)c1-c1ccc(Cl)cc1` had a melting point of 185 to 186 °C.

`O=c1ccn([C@@H]2C(F)=C(CCO)[C@@H](O)[C@H]2O)c(=O)[nH]1` yielded a melting point of 166 to 167 °C.

`CS(=O)(=O)c1ccc(-c2cnn(CCc3ccccc3)c(=O)c2-c2ccc(F)cc2)cc1` yielded a melting point of 170 to 171 °C.

`O=S(=O)(c1ccc2ccccc2c1)N1C[C@@H](S)C[C@@H]1COCc1ccccc1`: the melting point was in the range of 79 to 80 °C.

For `CCC1CC2=C3C(=CN(OC)C2OC)OCCC3C1` (stereo unspecified), the melting point lay within 207 to 210 °C.

With `Fc1ccc(SCCCN2CCN(c3ncc(F)cn3)CC2)cc1`, the melting point lay within 68 to 70 °C.

In turn, `COc1cc(N)c(Cl)cc1-c1nc(-c2cccnc2)c(C)[nH]1` displayed a melting point of 178 to 180 °C.

`O=C1CC2c3c(Br)cccc3CCC23OCC(c2ccccc2)N13` (stereo unspecified) had a melting point of 123 to 126 °C.

Consider `CC(=O)N1c2ccc(O)cc2Sc2cc([N+](=O)[O-])ccc21`, for which the melting point was 202 to 205 °C.

In turn, `CCCCOCCOc1ccc(-c2ccc3c(c2)C=C(C(=O)OC)CCN3C(=O)CNC(C)=O)cc1` returned a melting point of 130 to 134 °C.

Turning to `C=CCc1c(-c2cc(=O)c3c(O)cc(OCC(=O)OCC)cc3o2)ccc(OC)c1O`, the melting point is 155 °C.

In turn, `CCn1c(=O)n(OCc2ccccc2)c(=O)c2cc(F)c(N3CCN(C)CC3)cc21` displayed a melting point of 134 to 136 °C.

`CCOC(=O)C(C)(C)CCS(N)(=O)=O` showed a melting point of 93 to 94 °C.

As for `COc1ccc(C(=O)Nc2ccc(-n3nc(C(F)(F)F)cc3C(F)(F)F)cc2)c(Cl)c1`, the melting point was in the range of 140 to 143 °C.

As for `CC1(C)C=C(c2ccccn2)C2=C(CC=CC(C#N)=C2)C1`, the melting point came to 120 °C.

`CC1(C)SCCN(S(=O)(=O)c2ccc(-c3ccc(Br)cc3)cc2)C1C(=O)NO` (stereo unspecified) returned a melting point of 190 to 192 °C.

As to `N#Cc1ccc(-c2ccoc2)cc1`, the melting point fell in the range of 55 to 57 °C.

Compound `O=C(O)c1cc2c(c(C(=O)O)c1)NCCS2` showed a melting point of over 300 °C.

Take `CCc1nc(-c2cc(Cl)c(O)c(Cl)c2)no1`: the melting point was determined as 126 °C.

Compound `CCOC(=O)C1=C(C)NC(SCc2ccc(OC)cc2)=NC1c1cccc(C)c1` (stereo unspecified) displayed a melting point of 65 to 67 °C.

With `CCCN(CCC)C1Cc2cccc3c2N(C1)C(=O)NC3` (stereo unspecified), the melting point was 116 to 119 °C.

Consider `CCCC(=O)N1CCN(C(=O)OC2C3=C(SCCS3)C(=O)N2c2ccc3ccc(Cl)nc3n2)CC1` (stereo unspecified), for which the melting point came out at 248 °C.

Consider `O=C(OC1CCN(Cc2ccc(Cl)cc2)CC1)c1ccc(Cl)cc1`, for which the melting point lay in the range of 67 to 69 °C.

Turning to `CC(C)(C)NC(=O)[C@@H]1CCCN1C(=O)[C@@H](O)[C@H](Cc1ccccc1)NC(=O)[C@H](CC(N)=O)NC(=O)COc1ccc(NC(=O)CN2CCOCC2)cc1`, the melting point fell in the range of 121 to 127 °C.

The compound `CCOc1ccc(C(=O)NCc2ccc3c(c2)C(=O)N(C2(C)CCC(=O)NC2=O)C3=O)nc1` (stereo unspecified) registered a melting point of 145 to 147 °C.

`N[C@@H](CC(C(=O)O)=C1CCC1)C(=O)O` yielded a melting point of 212 to 214 °C.

The compound `Nc1ccc(Cl)c2c(Cl)ccnc12` yielded a melting point of 135 °C.

`CCCC1CCC2(C)C(=CCC3C4CCC(=O)C4(C)CCC32)C1` (stereo unspecified) came in with a melting point of 103 to 105 °C.

In turn, `O=C(O)c1cc2ccsc2nc1C(=O)O` gave a melting point of 272 to 275 °C.

`COc1ccc2c(c1Cl)C=CN(C(C)=O)C2`: the melting point was 78 to 80 °C.

On to `CCCOC(=O)C=Nc1cc(Cl)ccc1C(=O)O`, for which the melting point was found to be 155 °C.

Compound `CC(=O)c1ccc2c(c1)oc(=O)n2CCCN1CCC(c2noc3cc(F)ccc23)CC1` displayed a melting point of 152 to 154 °C.

Compound `COc1cc2c(Nc3ccc(Cl)cc3F)ncnc2cc1OCc1ccccn1` yielded a melting point of 215 to 218 °C.

With `Cc1ccnc(N2CCN(CCCC3CNc4c(ccc(C)c4-c4cc(C)c(O)c(C)c4)O3)CC2)c1` (stereo unspecified), the melting point came out at 110 °C.

`O=S(=O)(NCC1CCN(C[C@H]2COc3ccc(Cl)cc3O2)CC1)c1ccc(F)cc1F` registered a melting point of 119 to 121 °C.

Regarding `COc1cccc(C(=O)c2sc(NC(=O)c3ccncc3)nc2-c2ccco2)n1`, the melting point was 247 to 250 °C.

Compound `O=C(NCc1ccc(OCc2cccc(F)c2)cc1)C(=NO)c1ccccn1` gave a melting point of 146 to 148 °C.

The compound `COC(=O)C1CC2CCC1N(C(=O)OC(C)(C)C)C2` (stereo unspecified) yielded a melting point of 44 to 45 °C.

With `CCC(C)n1ncn(-c2ccc(N3CCN(c4ccc(OCC(O)(Cn5cncn5)c5ccc(Cl)cc5Cl)cc4)CC3)nc2)c1=O` (stereo unspecified), the melting point lay within 84 to 87 °C.

Compound `Brc1ccc2oc3ccc(Br)cc3c2c1` returned a melting point of 226 °C.

`CC(C)N(CCN1C(=O)/C(=N/NC(N)=O)c2cc(Br)ccc21)C(C)C`: the melting point was 149 to 153 °C.

On to `CSC(C)(C)c1nnc(N)s1`, for which the melting point lay in the range of 195 to 197 °C.

For `CN(C)CCCOc1ccc2c(c1)C(c1ccccc1)CC(=O)N2` (stereo unspecified), the melting point was in the range of 134 to 136 °C.

With `N#CCc1nnc(N)s1`, the melting point was in the range of 163 to 164 °C.

With `CNC(=S)n1nc(Oc2c(Cl)cc(C(F)(F)F)cc2Cl)cc1C`, the melting point lay in the range of 121 to 123 °C.

With `COC(=O)c1ccc(-c2nc3c(OC(C)=O)cccc3s2)cc1`, the melting point lay within 144 to 146 °C.

Turning to `CCC(O)c1cc(C(=O)c2ccccc2)no1` (stereo unspecified), the melting point lay in the range of 70 to 71 °C.

As for `CC(OC(=O)NC1(C(=O)O)CC1)OC(=O)C(C)C` (stereo unspecified), the melting point was 127 to 130 °C.

With `OCc1csc(NCc2ccccc2)n1`, the melting point is 85 to 86.5 °C.

In the case of `Cc1nnc(COc2ccc(Oc3ccccc3)cc2)o1`, the melting point fell in the range of 78 to 79 °C.

In turn, `COc1ccc2[nH]c3c(c2c1)C[C@@]1(C)C(=O)N(CCBr)C(=O)N1[C@@H]3c1cccc(O)c1` (racemic) displayed a melting point of 299 to 302 °C.

The compound `CC1(C)c2ccccc2C(C#N)c2ccccc21` yielded a melting point of 91 to 92 °C.

Consider `CCCc1c(C#N)ccc(NC(=NC#N)Nc2ccccc2Cl)c1O`, for which the melting point lay in the range of 159 to 160 °C.

In turn, `OCC(O)Cc1ncc[nH]1` (stereo unspecified) registered a melting point of 98 to 100 °C.

By melting point is commonly meant the temperature of the solid-liquid transition.

(Values after a melting point compilation (Tetko et al.; mined from patent text by program, amines drawn as free bases though some values may be those of a salt).)
